B1: PF-612: peptide having multiple activities (peptide)
chain 1: GTTLKYGLERQLKIDIHPEITIINLNGGADEFAKL
chain 2: B1 chain 1
modifications: Peptide with targeting and/or antimicrobial activity
B2: PF-S003: peptide having multiple activities (peptide)
chain 1: ALALLKQDLLNFEGRGRIITSTYLQFNEGCVP
chain 2: B2 chain 1
modifications: Peptide with targeting and/or antimicrobial activity

How the values were obtained:
[1] = system: microorganisms; test: Peptide activities: targeting/binding, antimicrobial, growth or phenotype altering (Tables 7, 8); format: cell-based; conditions: peptides having multiple activities
[2] = system: microorganisms; test: Targeting peptide binding to target microorganisms (Tables 3, 10, 12); conditions: microorganism(s) the targeting peptide binds, preferably 1x PBS
[3] = system: microorganisms; test: Morphology, biofilm and growth disrupting peptides (Table 5); format: cell-based; set-up: key: A: Peptide aggregates; B: Less hyphal formation; Clumps; Diffuse clumps and small polyps; F: Diffuse growth; H: Thin; I: Growth inhibition; Microcolony formation; Rippled; Small polyps; Thick; W: Halo formation on top, microlonies on bottom
Text: In certain embodiments peptides that induce alterations in phenotype or other biological activities can also be used as antimicrobial effector moieties.

Molecule	Activities [1]	Target(s) ([2]; binding in aqueous buffers that varied with peptide solubility)	Organism, effect: C. jeikeium ([3]; C. jeikeium)	Organism, effect: MRSA ([3]; MRSA)	Organism, effect: S. epidermidis ([3]; S. epidermidis)	Target(s) ([2]; binding in aqueous buffers varied with peptide solubility)	Organism, effect ([3]; E. faecalis)	Organism, effect ([3]; B. subtilis)	Organism, effect ([3]; C. jeikeium)	Organism, effect ([3]; C. jejuni)	Organism, effect ([3]; M. luteus)	Organism, effect ([3]; MRSA)	Organism, effect ([3]; S. epidermidis)	Organism, effect ([3]; S. pneumoniae)	Organism, effect ([3]; E. coli)	Organism, effect ([3]; P. aeruginosa)	Organism, effect ([3]; P. mirabilis)	Organism, effect ([3]; S. mutans)	Organism, effect ([3]; C. albicans)
ALDCSEQSVILWYETILDKIVGVIK [PF-028]	G B	S. epidermidis and M. luteus and MRSA	C. jeikeium (M)	MRSA (R)	S. epidermidis (M)	–	–	–	–	–	–	–	–	–	–	–	–	–	–
DEIKVSDEEIEKFIKENNL [PF-597]	G B	–	–	–	–	P. mirabilis	E. faecalis (A)	–	–	–	–	–	–	–	–	–	–	–	–
PF-556: peptide having multiple activities (SLQIRMNTLTAAKASIEAA; Peptide with targeting and/or antimicrobial activity)	G B	–	–	–	–	–	E. faecalis (A)	B. subtilis (C)	C. jeikeium (D)	C. jejuni (R)	M. luteus (A)	MRSA (M)	S. epidermidis (A)	S. pneumoniae (D)	–	–	–	–	–
PF-562: peptide having multiple activities (TPEQWLERSTVVVTGLLNRK; Peptide with targeting and/or antimicrobial activity)	G B	–	–	–	–	–	–	–	–	C. jejuni (R)	M. luteus (R)	MRSA (M)	S. epidermidis (A)	S. pneumoniae (D)	–	–	–	–	–
PF-577: peptide having multiple activities (PFETRESFRVPVIGILGGWDYFMHP; Peptide with targeting and/or antimicrobial activity)	G B	–	–	–	–	–	E. faecalis (A)	–	–	C. jejuni (R)	–	MRSA (M)	S. epidermidis (A)	S. pneumoniae (R)	E. coli (A)	P. aeruginosa (A)	–	–	–
PF-578: peptide having multiple activities (QKANLRIGFTYTSDSNVCNLTFALLGSK; Peptide with targeting and/or antimicrobial activity)	G B	–	–	–	–	–	–	–	–	–	M. luteus (C)	MRSA (C)	S. epidermidis (D)	S. pneumoniae (D)	E. coli (C)	–	P. mirabilis (C)	S. mutans (D)	–
PF-581: peptide having multiple activities (WTARARR; Peptide with targeting and/or antimicrobial activity)	G B	–	–	–	–	–	E. faecalis (A)	–	–	C. jejuni (A)	–	MRSA (A)	–	S. pneumoniae (A)	–	–	–	–	–
PF-586: peptide having multiple activities (chain 1 FFNQANYFFKEF; chain 2 FFNQANYFFKEF; Peptide with targeting and/or antimicrobial activity)	G B	–	–	–	–	–	E. faecalis (D)	–	–	C. jejuni (D)	–	MRSA (D)	S. epidermidis (C)	S. pneumoniae (D)	E. coli (C)	–	–	–	–
PF-592: peptide having multiple activities (chain 1 IMKNYKYFKLFIVKYALF; chain 2 IMKNYKYFKLFIVKYALF; Peptide with targeting and/or antimicrobial activity)	G B	–	–	–	–	–	E. faecalis (D)	–	–	C. jejuni (S)	–	MRSA (D)	S. epidermidis (M)	S. pneumoniae (D)	E. coli (C)	–	–	–	–
PF-595: peptide having multiple activities (chain 1 LQNKIYELLYIKERSKLCS; chain 2 LQNKIYELLYIKERSKLCS; Peptide with targeting and/or antimicrobial activity)	G B	–	–	–	–	–	E. faecalis (D)	–	–	C. jejuni (D)	–	MRSA (D)	S. epidermidis (C)	S. pneumoniae (R)	E. coli (C)	–	–	–	–
PF-596: peptide having multiple activities (chain 1 SKMWDKILTILILILELIRELIKL; chain 2 SKMWDKILTILILILELIRELIKL; Peptide with targeting and/or antimicrobial activity)	G B	–	–	–	–	–	E. faecalis (D)	–	–	C. jejuni (D)	–	MRSA (D)	S. epidermidis (D)	S. pneumoniae (D)	E. coli (C)	–	–	–	–
PF-605: peptide having multiple activities (chain 1 HYRWNTQWWKY; chain 2 HYRWNTQWWKY; Peptide with targeting and/or antimicrobial activity)	G B	–	–	–	–	–	E. faecalis (R)	–	–	C. jejuni (R)	–	MRSA (C)	S. epidermidis (R)	S. pneumoniae (D)	E. coli (C)	P. aeruginosa (A)	–	–	C. albicans (B)
PF-610: peptide having multiple activities (chain 1 VFLKLKTSKIDLASIIFYP; chain 2 VFLKLKTSKIDLASIIFYP; Peptide with targeting and/or antimicrobial activity)	G B	–	–	–	–	–	E. faecalis (D)	–	–	C. jejuni (D)	–	MRSA (D)	S. epidermidis (C)	S. pneumoniae (D)	E. coli (C)	–	–	–	–
PF-615: peptide having multiple activities (chain 1 FLNRFIFYIFTVKTKSALIKNLFLD; chain 2 FLNRFIFYIFTVKTKSALIKNLFLD; Peptide with targeting and/or antimicrobial activity)	G B	–	–	–	–	–	E. faecalis (D)	–	–	C. jejuni (D)	–	MRSA (D)	S. epidermidis (D)	S. pneumoniae (D)	E. coli (C)	–	–	–	–
PF-619: peptide having multiple activities (chain 1 WSRVPGHSDTGWKVWHRW; chain 2 WSRVPGHSDTGWKVWHRW; Peptide with targeting and/or antimicrobial activity)	G B	–	–	–	–	–	–	–	–	–	–	MRSA (M)	S. epidermidis (M)	S. pneumoniae (C)	E. coli (C)	–	–	–	–
PF-630: peptide having multiple activities (chain 1 IPATPIIHS; chain 2 IPATPIIHS; Peptide with targeting and/or antimicrobial activity)	G B	–	–	–	–	–	–	–	–	–	–	MRSA (M)	–	–	–	–	–	–	–
PF-634: peptide having multiple activities (chain 1 MPKARPVNHNKKKSKITIKSNFTLFYMFNP; chain 2 MPKARPVNHNKKKSKITIKSNFTLFYMFNP; Peptide with targeting and/or antimicrobial activity)	G B	–	–	–	–	–	–	–	–	–	M. luteus (C)	MRSA (D)	S. epidermidis (D)	S. pneumoniae (D)	E. coli (C)	–	P. mirabilis (C)	S. mutans (D)	–
PF-770: peptide having multiple activities (GVGIGFIMMGVVGYAVKLVHIPIRYLIV; Peptide with targeting and/or antimicrobial activity)	G B	–	–	–	–	–	–	–	–	–	M. luteus (C)	MRSA (D)	S. epidermidis (D)	S. pneumoniae (C)	E. coli (C)	–	P. mirabilis (C)	S. mutans (D)	–
B1	G B	–	–	–	–	–	–	–	–	–	M. luteus (A)	MRSA (C)	S. epidermidis (C)	S. pneumoniae (C)	E. coli (C)	–	P. mirabilis (C)	S. mutans (F)	–
B2	G B	–	–	–	–	–	–	B. subtilis (A)	C. jeikeium (D)	C. jejuni (D)	M. luteus (R)	MRSA (M)	S. epidermidis (R)	S. pneumoniae (D)	–	P. aeruginosa (A)	–	–	C. albicans (A)

— patent US20110039763A1, “TARGETED ANTIMICROBIAL MOIETIES” (C3 JIAN, INC., priority 2009, published 2011)
